# Measured values: patent US8097431B2 (priority 2004, dated 2012)
# Columns and labels:
# [1] = target: T1, progesterone tripartite system (Homo sapiens, UniProt P06401); assay: progesterone bioactivity in serum of women on birth control (progesterone tripartite system); type: in vivo; details: women on fourth generation progestin
# T1 construct: expressed in transfected cells; host or cells: Saccharomyces cerevisiae W303 diploid yARUP16 transformed with pARUP32 (yARUP49)
# T1 sequence (P06401 with tags, fused parts or gaps): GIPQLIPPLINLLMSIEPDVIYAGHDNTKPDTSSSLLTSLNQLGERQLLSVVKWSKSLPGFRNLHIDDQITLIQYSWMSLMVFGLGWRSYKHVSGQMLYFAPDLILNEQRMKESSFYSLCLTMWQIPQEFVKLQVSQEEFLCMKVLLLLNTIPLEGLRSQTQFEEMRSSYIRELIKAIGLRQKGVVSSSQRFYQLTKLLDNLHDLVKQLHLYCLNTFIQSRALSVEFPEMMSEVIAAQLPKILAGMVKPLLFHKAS
# Experimental: Serum samples were pre-treated by diluting with an equal volume of 0.9 mg/mL K2EDTA, (150 μl of serum was added to 150 μl of 0.9 mg/mL K2 EDTA), vortexed briefly and heated for 5 min at 72 C. Pre-treated serum was added to yeast expressing the androgen or progesterone tripartite, prepared as follows.
# Yeast were inoculated from a frozen stock into synthetic media lacking leucine, uracil, and histidine supplemented with 2% dextrose. […] Twenty-five microliters of mid-log yeast were added to each well of a 384-well plate using a, BioMek 2000 (Beckman-Coulter). Serum samples were diluted with an equal volume of 0.9 mg/mL K2EDTA, (150 μL of serum was added to 150 μL of 0.9 mg/mL K2 EDTA), vortexed briefly and heated for 5 min at 72° C. Ten microliters of pre-treated sample was added to the plate. Ten microliters of serially diluted compound in H2O was incubated with 25 μL of yeast (Thermolabsystems). The plate was covered with Aeroseal sealing film (Research Products International, Palatine Ill.), and placed on a plate shaker for 5 min and the plate was incubated for 17-18 hr at 28° C. in a humidified incubator. After overnight incubation, the plate was shaken for 5 min. […] After about 2-hr incubation at room temperature, the β-galactosidase in the reaction mixture was determined using Luminskan luminometer (Thermolabsystems). […]
# LexA-DBD:PR-LBD:VP16 = target: T2, LexA-DBD:PR-LBD:VP16 (Homo sapiens, UniProt P06401); assay: yeast progesterone tripartite bioassay; type: cell-based; details: progesterone receptor tripartite
# T2 construct: expressed in transfected cells; host or cells: Saccharomyces cerevisiae W303 diploid yARUP16 transformed with pARUP32 (yARUP49)
# T2 sequence (P06401 with tags, fused parts or gaps): T1 sequence (P06401 with tags, fused parts or gaps)
# Experimental: Yeast were inoculated from a plate into synthetic media lacking leucine, uracil and histidine supplemented with 2% dextrose. After 18 hr incubation at 30° C., cells were washed with synthetic media lacking leucine, uracil and histidine supplemented with glycerol and resuspended in glycerol media to an absorbance at 600 nm of 0.03. Cells were grown for 4 hr then 50 μL of cells were added to each well of a 96-well plate. 50 μl of steroid in phosphate buffered saline 0.5% BSA. Cells were grown at 30° C. in a shaking water bath for 18 hr. To detect β-galactosidase activity, 25 μl of cells and 25 μl of Beta-Glo (Promega, Madison Wis.) were transferred to a luminescent 96-well plate (Fisher, Pittsburgh, Pa.). After 30 min incubation at room temperature, the reaction mixture was read using Lumimark (Bio-Rad, Hercules, Calif.).
levels detectable by this method (LexA-DBD:PR-LBD:VP16),Structure (SMILES),serum progesterone levels of women on birth control [1]
,C[C@]12CCC(=O)C=C1[C@@H]1C[C@@H]1[C@H]1[C@@H]3[C@@H]4C[C@@H]4[C@@]4(CCC(=O)O4)[C@@]3(C)CC[C@@H]12 [drospireone],lower
"1000-100,000 pg/ml","CC(=O)[C@H]1CC[C@H]2[C@@H]3CCC4=CC(=O)CC[C@]4(C)[C@H]3CC[C@]12C [Progesterone, progesterone]",
